What was measured:
E. coli K12 = experiment: Minimum inhibitory concentration (MIC), NCCLS method, control strain; assay type: cell-based, Escherichia coli; settings: no unit in table, MIC in μg/mL
Text: (§1) Escherichia coli (E. coli) are one of the most common bacteria in the clinic. 30 strains of E. coli obtained from the clinic were named YT1-30. The minimum inhibitory concentrations (MIC) of 8 antibiotics against these 30 clinically obtained E. coli was detected according to the NCCLS method, and E. coli K12 was used as a control.

[1] = test system: clinical Escherichia coli YT1-30; experiment: Minimum inhibitory concentration (MIC), NCCLS method, 30 clinical strains; assay type: cell-based; set-up: Minimum inhibitory concentration (MIC): unit not given here
Text: as §1

Compound	Minimum inhibitory concentration (MIC) (E. coli K12)	Minimum inhibitory concentration (MIC) ([1]; strain YT1)	Minimum inhibitory concentration (MIC) ([1]; strain YT2)	Minimum inhibitory concentration (MIC) ([1]; strain YT3)	Minimum inhibitory concentration (MIC) ([1]; strain YT4)	Minimum inhibitory concentration (MIC) ([1]; strain YT5)	Minimum inhibitory concentration (MIC) ([1]; strain YT6)	Minimum inhibitory concentration (MIC) ([1]; strain YT7)	Minimum inhibitory concentration (MIC) ([1]; strain YT8)	Minimum inhibitory concentration (MIC) ([1]; strain YT9)	Minimum inhibitory concentration (MIC) ([1]; strain YT10)	Minimum inhibitory concentration (MIC) ([1]; strain YT11)	Minimum inhibitory concentration (MIC) ([1]; strain YT12)	Minimum inhibitory concentration (MIC) ([1]; strain YT13)	Minimum inhibitory concentration (MIC) ([1]; strain YT14)	Minimum inhibitory concentration (MIC) ([1]; strain YT15)	Minimum inhibitory concentration (MIC) ([1]; strain YT16)	Minimum inhibitory concentration (MIC) ([1]; strain YT17)	Minimum inhibitory concentration (MIC) ([1]; strain YT18)	Minimum inhibitory concentration (MIC) ([1]; strain YT19)	further results
CN(C)[C@@H]1C(O)=C(C(N)=O)C(=O)[C@@]2(O)C(O)=C3C(=O)c4c(O)cccc4[C@@](C)(O)[C@H]3C[C@@H]12 [Tetracycline]	1.526	6.1	24.414	97.656	390.625	390.625	97.656	97.656	97.656	97.656	97.656	97.656	6250	6250	6250	6250	6250	6250	1562.5	1562.5	Minimum inhibitory concentration (MIC) ([1]; strain YT20): 1562.5; Minimum inhibitory concentration (MIC) ([1]; strain YT21): 1562.5; Minimum inhibitory concentration (MIC) ([1]; strain YT22): 1562.5; Minimum inhibitory concentration (MIC) ([1]; strain YT23): 1562.5; Minimum inhibitory concentration (MIC) ([1]; strain YT24): 1562.5; Minimum inhibitory concentration (MIC) ([1]; strain YT25): 6.103; Minimum inhibitory concentration (MIC) ([1]; strain YT26): 97.656; Minimum inhibitory concentration (MIC) ([1]; strain YT27): 97.656; Minimum inhibitory concentration (MIC) ([1]; strain YT28): 390.625; Minimum inhibitory concentration (MIC) ([1]; strain YT29): 390.625; Minimum inhibitory concentration (MIC) ([1]; strain YT30): 390.625
Gentamicin	0.61	2.441	156.25	156.25	9.765	625	156.25	625	625	156.25	625	2500	2500	2500	2500	2500	2500	2500	2.441	625	Minimum inhibitory concentration (MIC) ([1]; strain YT20): 156.25; Minimum inhibitory concentration (MIC) ([1]; strain YT21): 2500; Minimum inhibitory concentration (MIC) ([1]; strain YT22): 2500; Minimum inhibitory concentration (MIC) ([1]; strain YT23): 156.25; Minimum inhibitory concentration (MIC) ([1]; strain YT24): 625; Minimum inhibitory concentration (MIC) ([1]; strain YT25): 2500; Minimum inhibitory concentration (MIC) ([1]; strain YT26): 2500; Minimum inhibitory concentration (MIC) ([1]; strain YT27): 625; Minimum inhibitory concentration (MIC) ([1]; strain YT28): 2500; Minimum inhibitory concentration (MIC) ([1]; strain YT29): 625; Minimum inhibitory concentration (MIC) ([1]; strain YT30): 39.0625
CNC1CCCN(c2c(F)cc3c(=O)c(C(=O)O)cn(C4CC4)c3c2OC)C1 (stereo not drawn) [Balofloxacin]	0.015	0.244	3.906	15.625	250	250	62.5	15.625	250	250	15.625	3.906	62.5	62.5	15.625	15.625	250	250	62.5	62.5	Minimum inhibitory concentration (MIC) ([1]; strain YT20): 62.5; Minimum inhibitory concentration (MIC) ([1]; strain YT21): 15.625; Minimum inhibitory concentration (MIC) ([1]; strain YT22): 62.5; Minimum inhibitory concentration (MIC) ([1]; strain YT23): 15.625; Minimum inhibitory concentration (MIC) ([1]; strain YT24): 15.625; Minimum inhibitory concentration (MIC) ([1]; strain YT25): 0.244; Minimum inhibitory concentration (MIC) ([1]; strain YT26): 15.625; Minimum inhibitory concentration (MIC) ([1]; strain YT27): 15.625; Minimum inhibitory concentration (MIC) ([1]; strain YT28): 15.625; Minimum inhibitory concentration (MIC) ([1]; strain YT29): 15.625; Minimum inhibitory concentration (MIC) ([1]; strain YT30): 15.625

From patent US11752120B2, “Use of succinic acid in increasing sensitivity of bacteria to antibiotics” (SUN YAT-SEN UNIVERSITY, priority 2018, dated 2023)
